Patent US11612604B2, “Methods of treating cancer with PLK4 inhibitors” (LUDWIG INSTITUTE FOR CANCER RESEARCH LTD, priority 2017, dated 2023)

What follows are compounds tested against T1, PLK4 (Homo sapiens, UniProt O00444) (assay: Activity (IC50) of the Table 1 compounds as PLK4 inhibitors). Conditions: Table 1, IC50 class.
T1 sequence (O00444 1-970): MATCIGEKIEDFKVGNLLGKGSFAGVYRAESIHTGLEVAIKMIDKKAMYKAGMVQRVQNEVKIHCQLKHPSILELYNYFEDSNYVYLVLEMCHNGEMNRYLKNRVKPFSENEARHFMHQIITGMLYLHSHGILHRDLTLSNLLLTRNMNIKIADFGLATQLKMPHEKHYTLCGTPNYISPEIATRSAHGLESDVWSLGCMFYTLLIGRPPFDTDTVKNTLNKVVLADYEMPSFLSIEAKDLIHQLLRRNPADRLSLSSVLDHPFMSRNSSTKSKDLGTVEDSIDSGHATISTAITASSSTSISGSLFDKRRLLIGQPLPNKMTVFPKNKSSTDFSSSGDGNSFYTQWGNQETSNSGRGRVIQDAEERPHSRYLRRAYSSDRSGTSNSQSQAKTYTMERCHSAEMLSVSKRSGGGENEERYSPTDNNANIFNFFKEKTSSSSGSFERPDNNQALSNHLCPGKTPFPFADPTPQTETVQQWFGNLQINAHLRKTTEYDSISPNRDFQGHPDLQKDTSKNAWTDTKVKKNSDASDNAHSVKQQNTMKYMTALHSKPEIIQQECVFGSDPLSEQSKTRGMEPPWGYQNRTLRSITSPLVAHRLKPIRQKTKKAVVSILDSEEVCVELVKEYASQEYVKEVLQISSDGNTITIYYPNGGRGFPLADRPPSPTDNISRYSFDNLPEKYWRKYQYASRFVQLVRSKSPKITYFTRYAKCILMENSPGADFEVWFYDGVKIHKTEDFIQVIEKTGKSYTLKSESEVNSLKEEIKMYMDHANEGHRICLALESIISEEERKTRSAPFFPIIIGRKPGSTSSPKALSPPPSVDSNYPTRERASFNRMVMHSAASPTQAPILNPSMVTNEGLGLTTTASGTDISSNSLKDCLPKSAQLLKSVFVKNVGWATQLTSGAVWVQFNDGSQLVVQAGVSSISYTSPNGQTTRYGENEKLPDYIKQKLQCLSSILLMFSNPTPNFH
Format: biochemical

IC50 [nM]	SMILES
< 100	Cc1cc(Nc2cc(N3CCN(CCN(C)C)CC3)nc(Sc3ccc(S(=O)(=O)Cc4ccccc4)cc3)n2)n[nH]1
< 100	CCOc1c(Nc2cc(C)[nH]n2)nc(Sc2ccc(S(=O)(=O)Cc3ccccc3)cc2)nc1N1CCNCC1
< 100	COc1c(Nc2cc(C)[nH]n2)nc(Sc2ccc(S(=O)(=O)C(C)(C)c3cccc([N+](=O)[O-])c3F)cc2F)nc1N1CCC(CCN)CC1
< 100	COc1c(C)nc(Sc2ccc(S(=O)(=O)Cc3ccccc3)cc2)nc1Nc1cc(C)[nH]n1
< 100	COc1c(Nc2cc(C)[nH]n2)nc(Sc2ccc(S(=O)(=O)Cc3ccccc3)cc2)nc1N1CCOC[C@H]1C
< 100	COc1c(Nc2cc(C)[nH]n2)nc(Sc2ccc(S(=O)(=O)C(C)(C)c3cccc(Cl)c3F)cc2F)nc1N1CCOCC1
< 100	COc1c(Nc2cc(C)[nH]n2)nc(Sc2ccc(S(=O)(=O)Cc3cccc([N+](=O)[O-])c3F)cc2F)nc1N1CCN(CCN(C)C)CC1
< 100	CCOc1c(Nc2cc(C)[nH]n2)nc(Sc2ccc(S(=O)(=O)Cc3ccccc3)cc2)nc1N1CCN(CCN(C)C)CC1
< 100	COc1c(Nc2cc(C)[nH]n2)nc(Sc2ccc(NC(=O)C3CCCC3)cc2)nc1N1CCN(CCN(C)C)CC1
< 100	COc1c(Nc2cc(C)[nH]n2)nc(Sc2ccc(S(=O)(=O)Cc3cccc([N+](=O)[O-])c3F)cc2)nc1N1CCN(CCN(C)C)CC1
< 100	COc1c(Nc2cc(C)[nH]n2)nc(Sc2ccc(S(=O)(=O)C(C)(C)c3cccs3)cc2)nc1N1CCN(CCN(C)C)CC1
< 100	COc1c(Nc2cc(C)[nH]n2)nc(Sc2ccc(NC(=O)C3CC3)cc2)nc1N1CCN(C(C)=O)CC1
< 100	COc1ccc(CS(=O)(=O)c2ccc(Sc3nc(Nc4cc(C)[nH]n4)c(OC)c(N4CCOCC4)n3)cc2)cc1
< 100	COc1c(Nc2ncc(C)s2)nc(Sc2ccc(NC(C)=O)cc2)nc1N1CCN(CCN(C)C)CC1
< 100	COc1c(Nc2cc(C)[nH]n2)nc(Sc2ccc(NC(C)=O)cc2)nc1N1CCC(CC(=O)N(C)C)CC1
< 100	COc1c(Nc2cc(C)[nH]n2)nc(Sc2ccc(S(=O)(=O)C(C)(C)c3cccc([N+](=O)[O-])c3F)cc2F)nc1N1CCC(CCNC(C)=O)CC1
< 100	COc1c(Nc2cc(C)[nH]n2)nc(Sc2ccc(S(=O)(=O)C(C)(C)c3cccc([N+](=O)[O-])c3F)cc2F)nc1N1CCC(N)CC1
< 100	COc1c(Nc2cc(C)[nH]n2)nc(Sc2ccc(S(=O)(=O)C(C)(C)c3cccc([N+](=O)[O-])c3F)cc2F)nc1N1CCC(CCCN(C)C)CC1
< 100	COc1c(Nc2cc(C)[nH]n2)nc(Sc2ccc(NC(C)=O)cc2)nc1N1CCN(CCN2C3CCCC2CCC3)CC1
< 100	COc1c(Nc2cc(C)[nH]n2)nc(Sc2ccc(NC(C)=O)cc2)nc1N1CCNCC1
< 100	COc1c(Nc2cc(C)[nH]n2)nc(Sc2ccc(S(=O)(=O)Cc3ccccc3)cc2)nc1N1CCN(C2CCN(C)CC2)CC1
< 100	COC(=O)CC1CCN(c2nc(Sc3ccc(NC(C)=O)cc3)nc(Nc3cc(C)[nH]n3)c2OC)CC1
< 100	COc1c(Nc2cc(C)[nH]n2)nc(Sc2ccc(S(=O)(=O)C(F)c3cccc([N+](=O)[O-])c3F)cc2F)nc1N1CCC(CCN(C)C)CC1 (centres unmarked)
< 100	COc1c(Nc2cc(C)[nH]n2)nc(Sc2ccc(S(=O)(=O)Cc3cccnc3)cc2)nc1N1CCN(CCN(C)C)CC1
< 100	COc1c(Nc2cc(C)[nH]n2)nc(Sc2ccc(S(=O)(=O)Cc3cccc([N+](=O)[O-])c3F)cc2F)nc1N1CCCC[C@@H]1CO
< 100	COc1c(Nc2cc(C)[nH]n2)nc(Sc2ccc(S(=O)(=O)Cc3c(F)c(F)cc(Cl)c3F)cc2F)nc1N1CCC(CCN(C)C)CC1
< 100	COc1ccc(CS(=O)(=O)c2ccc(Sc3nc(Nc4cc(C)[nH]n4)c(OC)c(N4CCCCC4)n3)c(F)c2)cc1
< 100	COc1c(Nc2cc(C)[nH]n2)nc(Sc2ccc(S(=O)(=O)Cc3cccc(C(N)=O)c3)cc2)nc1N1CCN(CCN(C)C)CC1
< 100	COc1c(Nc2cc(C)[nH]n2)nc(Sc2ccc(S(=O)(=O)C3(c4cccc([N+](=O)[O-])c4F)CC3)cc2F)nc1N1CCC(CN(C)C)CC1

Continued, compound first:

SMILES	IC50 [nM]
CC(=O)N1CCN(c2nc(Sc3ccc(NC(=O)C4CCCC4)cc3)nc(Nc3cc(C)[nH]n3)c2C)CC1	< 100
Cc1cc(Nc2nc(Sc3ccc([N+](=O)[O-])cc3)nc3c2CCC32CCN(CCN(C)C)CC2)n[nH]1	< 100
CNC1CCN(c2nc(Sc3ccc(NC(C)=O)cc3)nc(Nc3cc(C)[nH]n3)c2C)CC1	< 100
CCN(C)c1nc(Sc2ccc(NC(C)=O)cc2)nc(Nc2cc(C)[nH]n2)c1OC	< 100
COc1c(Nc2cc(C)[nH]n2)nc(Sc2ccc(S(=O)(=O)C3(c4cccc([N+](=O)[O-])c4F)CC3)cc2F)nc1N1CCC(C(N)=O)CC1	< 100
COc1c(Nc2cc(C)[nH]n2)nc(Sc2ccc(NC(C)=O)cc2)nc1N(C)C	< 100
COc1c(Nc2cc(C)[nH]n2)nc(Sc2ccc(S(=O)(=O)C(F)c3cccc([N+](=O)[O-])c3F)cc2F)nc1N1CCOC[C@@H]1CO (some centres unmarked)	< 100
CCN(C)c1nc(Sc2ccc(NC(C)=O)cc2)nc(Nc2cc(C)[nH]n2)c1C	< 100
COc1c(Nc2cc(C)[nH]n2)nc(Sc2ccc(S(=O)(=O)C(C)(C)c3cccc([N+](=O)[O-])c3F)cc2F)nc1N1CC[C@H](NC(C)=O)C1	< 100
Cc1cc(Nc2cc(C)[nH]n2)nc(Sc2ccc(NC(=O)C3CC3)cc2)n1	< 100
Cc1ccc(Sc2nc(Nc3cc(C)[nH]n3)c(C)c(N3CCCCC3)n2)cc1	< 100
COc1c(Nc2cc(C)[nH]n2)nc(Sc2ccc(S(=O)(=O)C3(c4c(F)c(F)cc(F)c4F)CC3)cc2F)nc1N1CCOCC1	< 100
COCC(=O)N1CCN(c2nc(SC)nc(Nc3cc(C)[nH]n3)c2C)CC1	< 100
CC(=O)Nc1ccc(Sc2nc(Nc3cc(C)[nH]n3)c(C)c(N3CCOC[C@H]3C)n2)cc1	< 100
Cc1cc(Nc2nc(Sc3ccc(N)cc3)nc(N3CCOCC3)c2C)n[nH]1	< 100
COc1c(Nc2cc(C)[nH]n2)nc(Sc2ccc(S(=O)(=O)C(C)(C)c3c(F)c(F)c(F)c(F)c3F)cc2F)nc1N1CCC(N(C)C)CC1	< 100
CC(=O)Nc1ccc(Sc2nc(Nc3cc(C)[nH]n3)c(C)c(N3CCC(N)CC3)n2)cc1	< 100
CC(=O)Nc1ccc(Sc2nc(Nc3cc(C)[nH]n3)c(C)c(N3CCN(C4CCN(C)CC4)CC3)n2)cc1	< 100
COc1c(Nc2cc(C)[nH]n2)nc(Sc2ccc(/C=C/c3cccc([N+](=O)[O-])c3F)cc2F)nc1N1CCOCC1	< 100
CC(=O)Nc1ccc(Sc2nc(Nc3cc(C)[nH]n3)c(C)c(N3CCC(O)CC3)n2)cc1	< 100

Each compound was assayed on caspase-3/7 activity in 'Sensitive' neuroblastoma and 'Not Sensitive' (RPE1, BT-12, BT-16) cell lines (assay: Caspase activation assay). Conditions: 500 nM centrinone B, four cell cycle durations, compared with centrinone.
Format: cell-based

SMILES	caspase activity
COc1c(Nc2cc(C)[nH]n2)nc(Sc2ccc(S(=O)(=O)Cc3cccc([N+](=O)[O-])c3F)cc2F)nc1N1CCCCC1 [centrinone B]	Comparable levels of caspase activity
